The values below come from publication PMC7251074, “Identification of Anti-tuberculosis Compounds From Aurone Analogs” (Frontiers in Microbiology, 2020).

Converted amounts (≈) assume the structure as drawn.

One data set relates to Mtb CDC1551. Briefly: Resazurin microtiter assay (REMA) for MICs. The format is cell-based. Conditions: Mycobacterium tuberculosis, CDC1551, 168 h. (In general: Alamar Blue is a resazurin reagent that responds to reducing activity.)
The test system of data set [1] is tdTomato-expressing Mtb in the lungs of BALB/c mice. Type of data set: in vivo, Mycobacterium tuberculosis. Conditions: after a 12-days treatment.
For data set [2], the system named is intracellular Mtb in THP-1 cell derived macrophages. Briefly: Efficacy against intracellular Mtb in THP-1 derived macrophages. Conditions: 48 h. The format is cell-based, Mycobacterium tuberculosis. The protocol: Human monocyte THP-1 cells were seeded at 5 × 10^4 cells / well in 96-well tissue culture black plates with clear bottoms. PMA was used to induce the monocytes to develop into macrophages for 3 days before infection. The tdTomato-expressing Mtb strain was employed for cell infection at an MOI = 20. After a 3 h incubation of the Mtb strain with THP-1 cells, extracellular bacteria were removed by washing twice with the cell culture medium. 200 μL of cell culture medium containing either 25 or 50 μM aurones or 1X MICs of amikacin (AMI, 1 μg/mL), ethambutol (ETH, 0.5 μg/mL), RIF (0.4 μg/mL) and isoniazid (INH) (0.5 μg/mL) was added to each well in triplicate and incubated for 48 h. Infected cells treated with the vehicle buffer served as negative controls. Cells were then lysed and plated for CFU counting.
FIGURE 2 Aurones inhibit intracellular Mtb. (A) Growth ratios of samples treated with the aurone leads or control drugs compared to the growth ratio of untreated control. Growth ratio of each sample = FI of each sample at 48 h / FI of the same sample at 0 h. (B) CFUs of samples treated with the aurone leads or control drugs compared to the CFU of untreated control at 0 and 48 h. 25 and 50 μM of the aurone leads were incubated with the infected cells (MOI = 20) after removing extracellular bacteria. Positive controls: AMI (1 μg/mL), ETH (0.5 μg/mL), INH (0.5 μg/mL), and RIF (0.4 μg/mL). Data are means of three independent experiments ± S.D. *P < 0.05, **P < 0.01, ****P < 0.0001.

The test system of a further data set is Vero cells. As to the kind of experiment: MTT cell viability cytotoxicity assay, Vero. The format is cell-based, primate. Conditions: IC50 Vero / MIC Mtb; 2880 min.
A short description of data set [3]: MTT cell viability cytotoxicity assay, Vero. The format is cell-based, primate. Conditions: monkey, vero cells; MTT, 2-days incubation; read-out: IC50 Vero.
The test system of data set [4] is tdTomato-expressing Mtb CDC1551 strain. Briefly: microbe, parasite or virus in culture. Type of data set: cell-based, Mycobacterium tuberculosis. Conditions: Mycobacterium tuberculosis, 72 h, aurones at 100 μM, 3 days co-incubation, tdTomato fluorescence intensity; read-out: Inhibitory rate.
Another data set concerns HepG2 cells. As to the kind of experiment: MTT cell viability cytotoxicity assay, HepG2. The format is cell-based, human. The protocol: Cytotoxicities of the aurones were evaluated in Vero cells (ATCC), HepG2 (ATCC), and THP-1 cells (ATCC) using the standard microculture tetrazolium (MTT) cell viability assay. Media used for the Vero cells was DMEM supplemented with 10% calf serum; for HepG2 cells the media used was DMEM supplemented with 20% calf serum; and for THP-1 cells the media used was RPMI-1640 supplemented with 10% calf serum (HyClone Cosmic Calf, GE Lifesciences). Cells were seeded into a 96-well plate. For THP-1 cells, phorbol-12-myristate-13-acetate (PMA) was used to induce the monocytes to develop into macrophages for 3 days before the cytotoxicity assay. A series of two-fold dilutions of aurones or RIF were added into the cell culture media in microplates to determine the concentration that eliminated 50% of eukaryotic cell growth in a 2-days incubation. Cells without drug treatment were incubated with the vehicle buffer and served as negative controls (100% viable). Cells treated with digitonin (100 μg/mL) served as the positive controls. After a 2-days incubation, 10 μL of MTT reagent was loaded into each well, and incubated for 3 h at 37°C. Hundred microliter of detergent solution was then added into each well and the 96-well plates were incubated for 2 h. Absorbance of each sample in the 96-well plates was measured at […]. Viability of each drug-treated sample was calculated as the absorbance of the sample divided by the absorbance of the untreated sample multiplied by 100.
We determined MICs of the top six aurone leads (AA2A, AA8, 9501, 9504, 9505, and 9510) using the standard resazurin microtiter assay (REMA) ([Palomino et al., 2002]). The MIC was defined as the lowest drug concentration that prevented the color change of resazurin from blue to pink. The MICs for 9504, 9505, 9501, 9510, AA2A, and AA8 were 6.25, 12.5, 25, 25, 25, and 50 μM, respectively (Table 2). We evaluated the cytotoxic effects of aurones to human liver cells HepG2, primate kidney Vero cells and human monocyte THP-1 cells after a 2-days incubation using the microculture tetrazolium (MTT) cell viability assay. Concentration gradients of the selected aurones or RIF (as a control) were incubated with the three cell lines. We calculated half maximal inhibitory concentration (IC50) of aurones on these three cell lines. By comparing MICs with IC50, we calculated the selectivity index (SI) for each aurone lead as […].

Data set [5] addresses Mtb chorismate synthase (Mtb-Cs, Rv2540c) (Mycobacterium tuberculosis, UniProt P9WPY1). As to the kind of experiment: Mtb chorismate synthase activity assay (coupled, Pi production with MESG/PNP). Type of data set: biochemical. Conditions: Pi production at A360, EPSP, FMN 0.04 mM, NADH 0.3 mM.
The next data set deals with THP-1 cells. As to the kind of experiment: MTT cell viability cytotoxicity assay, THP-1 derived macrophages. Type of data set: cell-based, human.
Data set [6] concerns purine nucleoside phosphorylase (PNP). Briefly: Purine nucleoside phosphorylase counter-assay. Type of data set: biochemical. Conditions: aurone 50 μM; PNP 0.2 U, MESG 50 μM, potassium phosphate 10 mM. The method, then: FIGURE 4 AA2A and 9504 inhibit Mtb-Cs activity. (A) Assay to measure the ability of aurones to inhibit Cs of Mtb. (B) SDS-PAGE analysis of extracted rRv3227 (left) and rRv2540c (right). Lane 1: marker (PageRuler^M Unstained); 2: crude protein extracts; 3–5: samples eluted from Ni-column by 125, 250, and 500 mM imidazole, respectively; 6: the concentrated proteins eluted by 500 mM imidazole. (C) Evaluation of 9501, 9504, 9505, and 9510 inhibitory effects on Mtb-Cs activity. (D) Evaluation of AA2A and AA8 inhibitory effects on Mtb-Cs activity. Data are means of three independent experiments ± S.D. The reaction mixture comprised Mtb-Cs, various concentrations of aurone leads, EPSP ([…]), FMN (0.04 mM) and NADH (0.3 mM). The production of chorismate from the enzymatic reaction was determined by measuring Pi production using MESG (0.2 mM) and PNP (1 U). […] The reaction mixture comprised PNP (0.2 U), MESG (50 μM), potassium phosphate (10 mM), and aurones (50 μM for 9501, 9504, 9505, and 9510; 200 μM for AA2A and AA8). No significant differences (P > 0.05) were identified between each of the aurone-treated group and the positive control group. Data are means of three independent experiments ± S.D.

Sequence of Mtb chorismate synthase (Mtb-Cs, Rv2540c) (P9WPY1 whole entry): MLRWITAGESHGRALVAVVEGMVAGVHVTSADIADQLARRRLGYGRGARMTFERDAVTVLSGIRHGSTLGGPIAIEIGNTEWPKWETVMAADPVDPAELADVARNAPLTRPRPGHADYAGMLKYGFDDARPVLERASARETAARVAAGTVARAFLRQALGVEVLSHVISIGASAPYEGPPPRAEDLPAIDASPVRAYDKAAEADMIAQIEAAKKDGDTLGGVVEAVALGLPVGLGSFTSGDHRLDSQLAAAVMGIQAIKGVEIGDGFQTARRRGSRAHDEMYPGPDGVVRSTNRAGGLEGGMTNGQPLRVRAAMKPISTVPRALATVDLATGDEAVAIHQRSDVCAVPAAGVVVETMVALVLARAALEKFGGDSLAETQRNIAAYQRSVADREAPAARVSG

In the case of `CN(C)c1ccc(C=C2Oc3cc(Cl)ccc3C2=O)cc1` [Aurone 9501], in the data set on Mtb CDC1551, the minimal inhibitory concentration (MIC) (usually the least concentration at which growth counts as inhibited) stood at 25 µM (≈ 7.49 µg/mL). In [1], the “Mtb load in the lungs of infected mice” value was “significantly reduced”. Moreover, the “Mtb CFU compared to the initial intracellular Mtb load (0 h)” value in [2] (50 μM) is recorded as “reduced Mtb CFU significantly”. Also, the “CFUs of intracellular Mtb at 48 h compared to before treatment (0 h)” value in data set [2] (25 and 50 μM) is recorded as “did not increase”. Besides, in the data set on Vero cells, the “SI (IC50/MIC) Vero” value is given as 44.50. Further, the CC50 at 48 h in data set [3] was 1110 µM. Moreover, the inhibition at 100 µM in data set [4] amounted to 85 ± 2.24%. For the same molecule, the IC50 (as a rule, the concentration needed to halve the response being measured) came out at 396 µM in the data set on HepG2 cells (Homo sapiens, HepG2, 48 h, read-out: IC50 HepG2); 5.36 ± 1.65 µM in [5]; 325 µM in the data set on THP-1 cells (Homo sapiens, THP-1, 48 h, read-out: IC50 THP-1). The “SI (IC50/MIC) HepG2” value in the data set on HepG2 cells (IC50 HepG2 / MIC Mtb, 2880 min) worked out at 15.85. This molecule also returned a selectivity index in the data set with HepG2 cells (on all three cell lines (HepG2, Vero, THP-1)) of more than 10. The “SI (IC50/MIC) THP-1” value with THP-1 cells (IC50 THP-1 / MIC Mtb, 2880 min) worked out at 12.98. Besides, in data set [6], the “inhibition of PNP” value is “do not inhibit”.
